Reference: PubChem BioAssay AID248 (DTP/NCI, 2004)
Where “and” joins values, the source holds several entries; their conditions need not be identical. Equal values may be shown once. Inconclusive results and toxic doses are left out. Rule as the data show it: active = T/C of 150% or more; inactive = T/C below 125%.

System: L1210 leukemia ip in BDF1 mice, survival T/C
Assay: NCI In Vivo Anticancer Drug Screen. Data for tumor model L1210 Leukemia (intraperitoneal) in B6D2F1 (BDF1) mice
Conditions: endpoint: mean survival time, higher = longer survival
Outline: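 Tumor cells were implanted, animals were treated, and survival was followed. The result divides the treated measurement by the vehicle-control measurement.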

[1] = dose: 100.0 mg/kg/injection, schedule: Q01DX009 (ip), vehicle: saline with Tween-80
[2] = dose: 200.0 mg/kg/injection, schedule: Q01DX009 (ip), vehicle: saline with Tween-80
[3] = dose: 400.0 mg/kg/injection, schedule: Q01DX009 (ip), vehicle: saline with Tween-80
[4] = dose: 100.0 mg/kg/injection, schedule: Q01DX001 (ip), vehicle: saline
[5] = dose: 100.0 mg/kg/injection, schedule: Q01DX009 (ip), vehicle: Klucel (hydroxypropylcellulose) (HPC)
[6] = dose: 200.0 mg/kg/injection, schedule: Q01DX001 (ip), vehicle: saline
[7] = dose: 200.0 mg/kg/injection, schedule: Q01DX009 (ip), vehicle: Klucel (hydroxypropylcellulose) (HPC)
[8] = dose: 400.0 mg/kg/injection, schedule: Q01DX001 (ip), vehicle: saline
[9] = dose: 400.0 mg/kg/injection, schedule: Q01DX009 (ip), vehicle: Klucel (hydroxypropylcellulose) (HPC)
[10] = dose: 25.0 mg/kg/injection, schedule: Q01DX009 (ip), vehicle: saline with Tween-80
[11] = dose: 100.0 mg/kg/injection, schedule: Q04DX003 (ip), vehicle: saline with Tween-80
[12] = dose: 200.0 mg/kg/injection, schedule: Q04DX003 (ip), vehicle: saline with Tween-80
[13] = dose: 400.0 mg/kg/injection, schedule: Q04DX003 (ip), vehicle: saline with Tween-80
[14] = dose: 50.0 mg/kg/injection, schedule: Q04DX003 (ip), vehicle: saline with Tween-80
[15] = dose: 100.0 mg/kg/injection, schedule: Q01DX001 (ip), vehicle: saline with Tween-80
[16] = dose: 100.0 mg/kg/injection, schedule: Q04DX002 (ip), vehicle: saline with Tween-80
[17] = dose: 200.0 mg/kg/injection, schedule: Q01DX001 (ip), vehicle: saline with Tween-80
[18] = dose: 200.0 mg/kg/injection, schedule: Q04DX002 (ip), vehicle: saline with Tween-80
[19] = dose: 50.0 mg/kg/injection, schedule: Q01DX009 (ip), vehicle: Klucel (hydroxypropylcellulose) (HPC)
[20] = dose: 25.0 mg/kg/injection, schedule: Q04DX003 (ip), vehicle: Klucel (hydroxypropylcellulose) (HPC)
[21] = dose: 50.0 mg/kg/injection, schedule: Q04DX003 (ip), vehicle: Klucel (hydroxypropylcellulose) (HPC)
[22] = dose: 100.0 mg/kg/injection, schedule: Q04DX003 (ip), vehicle: Klucel (hydroxypropylcellulose) (HPC)
[23] = dose: 200.0 mg/kg/injection, schedule: Q04DX003 (ip), vehicle: Klucel (hydroxypropylcellulose) (HPC)

Measured: T/C

CC(=O)C1(C(C)=O)C(c2cccc([N+](=O)[O-])c2)C1(c1ccccc1)[N+](=O)[O-] (centres undefined)
inactive: dose: 100.0 mg/kg/injection, schedule: Q01DX001 (ip), vehicle: other 95 % of control | [1] 94 % of control | dose: 100.0 mg/kg/injection, schedule: Q04DX003 (ip), vehicle: other 92 % of control | dose: 200.0 mg/kg/injection, schedule: Q01DX001 (ip), vehicle: other 93 % of control | [2] 102 % of control | dose: 200.0 mg/kg/injection, schedule: Q04DX003 (ip), vehicle: other 92 % of control | dose: 400.0 mg/kg/injection, schedule: Q01DX001 (ip), vehicle: other 95 % of control | [3] 96 % of control | dose: 400.0 mg/kg/injection, schedule: Q04DX003 (ip), vehicle: other 97 % of control

Nc1nc(N)c(N=O)c(=O)[nH]1
inactive: [4] 105 % of control | [5] 99 % of control | [6] 95 % of control | [7] 100 % of control | [8] 94 % of control | [9] 97 % of control

COC(OC)c1[nH]c(=S)[nH]c(=O)c1Cc1ccccc1
inactive: [10] 98 % of control | dose: 50.0 mg/kg/injection, schedule: Q01DX009 (ip), vehicle: saline with Tween-80 96 % of control | [1] 98 % of control | [11] 102 % of control | [2] 86 % of control | [12] 96 % of control | [13] 94 % of control

CC(C)CC(NC(=O)C(C)NC(=O)OCc1ccccc1)C(=O)OCc1ccccc1 (centres undefined)
inactive: [11] 92 % of control | [12] 92 % of control | [13] 91 % of control

COC(=O)C1(C)CCCC2(C)C1CCC13OCC(CC21)C1(C(C)C)OC31 (centres undefined)
inactive: [1] 96 % of control | [2] 93 % of control | [3] 95 % of control

O=C(NC(=S)Nc1ccc(F)cc1)c1cccc([N+](=O)[O-])c1
inactive: dose: 12.5 mg/kg/injection, schedule: Q01DX009 (ip), vehicle: saline with Tween-80 97 % of control and 98 % of control | [10] 94 % of control and 97 % of control | [14] 100 % of control | [15] 97 % of control | [16] 101 % of control | [11] 97 % of control | [17] 95 % of control | [18] 93 % of control and 97 % of control

COc1cc(=O)oc(/C=C/C=C/C=C/C(C)=C\C2(C)OC(C)C(C)(O)C2O)c1C (centres undefined)
inactive: dose: 12.5 mg/kg/injection, schedule: Q01DX009 (ip), vehicle: other 93 % of control | dose: 25.0 mg/kg/injection, schedule: Q01DX009 (ip), vehicle: other 100 % of control | dose: 50.0 mg/kg/injection, schedule: Q01DX009 (ip), vehicle: other 93 % of control

CN(C)CCN(C)CCN(C)CCN(C)C
inactive: dose: 100.0 mg/kg/injection, schedule: Q01DX009 (ip), vehicle: saline 95 % of control | dose: 200.0 mg/kg/injection, schedule: Q01DX009 (ip), vehicle: saline 100 % of control

O=C(Nc1ccc(CCO)cc1)Nc1cccc(Cl)c1Cl
inactive: [5] 91 % of control | [7] 91 % of control | [9] 100 % of control

O=C(OC1CCC2CC21)c1ccc([N+](=O)[O-])cc1[N+](=O)[O-] (centres undefined)
inactive: dose: 100.0 mg/kg/injection, schedule: Q01DX001 (ip), vehicle: Klucel (hydroxypropylcellulose) (HPC) 98 % of control | dose: 200.0 mg/kg/injection, schedule: Q01DX001 (ip), vehicle: Klucel (hydroxypropylcellulose) (HPC) 95 % of control | dose: 400.0 mg/kg/injection, schedule: Q01DX001 (ip), vehicle: Klucel (hydroxypropylcellulose) (HPC) 106 % of control

COC(=O)c1cn2ccc(C#N)cc2c1C(=O)OC
inactive: [16] 89 % of control | [18] 95 % of control | dose: 400.0 mg/kg/injection, schedule: Q04DX002 (ip), vehicle: saline with Tween-80 95 % of control

COc1ccc(-c2nc(SCc3ccc(Cl)cc3)[nH]c(=O)c2CCO)cc1
inactive: [19] 95 % of control | [5] 101 % of control | dose: 100.0 mg/kg/injection, schedule: Q04DX003 (ip), vehicle: saline 111 % of control | [7] 96 % of control | dose: 200.0 mg/kg/injection, schedule: Q04DX003 (ip), vehicle: saline 95 % of control

Clc1ccc(Cl)c(CBr)c1Cl
inactive: [20] 98 % of control | [19] 98 % of control | [21] 101 % of control | [5] 88 % of control | [22] 101 % of control | [11] 100 % of control | [7] 90 % of control

CC(Cc1ccccc1)NC(C#N)c1ccccc1 (centres undefined)
inactive: dose: 12.5 mg/kg/injection, schedule: Q01DX009 (ip), vehicle: Klucel (hydroxypropylcellulose) (HPC) 107 % of control | dose: 25.0 mg/kg/injection, schedule: Q01DX009 (ip), vehicle: Klucel (hydroxypropylcellulose) (HPC) 88 % of control | [20] 98 % of control | dose: 25.0 mg/kg/injection, schedule: Q04DX003 (ip), vehicle: saline with Tween-80 97 % of control | [19] 91 % of control | [21] 109 % of control | [14] 100 % of control | [5] 96 % of control | [22] 109 % of control | [11] 92 % of control | [23] 101 % of control

Nc1nc(=O)[nH]nc1SCc1ccccc1
inactive: [4] 104 % of control | [6] 98 % of control | [8] 98 % of control

Cc1cc(C)c(NC(=O)Nc2ccc(Cl)cc2)c(C)c1
inactive: [5] 92 % of control | [22] 100 % of control | [7] 92 % of control | [23] 97 % of control | [9] 96 % of control | dose: 400.0 mg/kg/injection, schedule: Q04DX003 (ip), vehicle: Klucel (hydroxypropylcellulose) (HPC) 97 % of control

CCCCCCCCCCCCCCC
inactive: [15] 107 % of control | [17] 95 % of control | dose: 400.0 mg/kg/injection, schedule: Q01DX001 (ip), vehicle: saline with Tween-80 91 % of control

C=CC[P+](Cc1cccc(OC)c1)(c1ccccc1)c1ccccc1
inactive: dose: 6.25 mg/kg/injection, schedule: Q04DX003 (ip), vehicle: saline 98 % of control | dose: 12.5 mg/kg/injection, schedule: Q04DX003 (ip), vehicle: saline 98 % of control | dose: 25.0 mg/kg/injection, schedule: Q04DX003 (ip), vehicle: saline 98 % of control | dose: 50.0 mg/kg/injection, schedule: Q04DX003 (ip), vehicle: saline 93 % of control

Cc1c[n+]([O-])ccc1N=NN(C)c1ccccc1C
inactive: dose: 18.75 mg/kg/injection, schedule: Q04DX002 (ip), vehicle: saline with Tween-80 102 % of control | dose: 37.5 mg/kg/injection, schedule: Q04DX002 (ip), vehicle: saline with Tween-80 105 % of control | dose: 75.0 mg/kg/injection, schedule: Q04DX002 (ip), vehicle: saline with Tween-80 102 % of control | [18] 86 % of control

O=C(O)COc1ccc(C(=O)O)cc1
inactive: dose: 100.0 mg/kg/injection, schedule: Q04DX002 (ip), vehicle: Klucel (hydroxypropylcellulose) (HPC) 111 % of control | dose: 200.0 mg/kg/injection, schedule: Q04DX002 (ip), vehicle: Klucel (hydroxypropylcellulose) (HPC) 97 % of control | dose: 400.0 mg/kg/injection, schedule: Q04DX002 (ip), vehicle: Klucel (hydroxypropylcellulose) (HPC) 101 % of control

CCCC1C2C(=O)N(c3ccccc3)C(=O)C2ON1c1ccccc1 (centres undefined)
inactive: dose: 50.0 mg/kg/injection, schedule: Q01DX001 (ip), vehicle: saline 104 % of control | [4] 98 % of control | [6] 101 % of control | [8] 106 % of control

CC(=O)OC1CCCCC1NC(=O)N(CCCl)N=O (centres undefined)
active: dose: 27.0 mg/kg/injection, schedule: Q01DX001 (ip), vehicle: carboxymethylcellulose (CMC) 333 % of control | dose: 40.0 mg/kg/injection, schedule: Q01DX001 (ip), vehicle: carboxymethylcellulose (CMC) 423 % of control | dose: 60.0 mg/kg/injection, schedule: Q01DX001 (ip), vehicle: carboxymethylcellulose (CMC) 422 % of control | dose: 90.0 mg/kg/injection, schedule: Q01DX001 (ip), vehicle: carboxymethylcellulose (CMC) 170 % of control
